Experimental data as given in PubChem BioAssay (NCI).
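These data come from cells grown in 96-well plates and exposed to compound for 48 hours at five concentrations. TGI denotes the concentration required for complete inhibition of growth.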

Experiments:
Assay in all cases: NCI-60 cell line screen, 48 h
TK-10 renal = system: TK-10 renal
HOP-62 NSCLC = system: HOP-62 NSCLC
OVCAR-5 ovarian = system: OVCAR-5 ovarian
786-0 renal = system: 786-0 renal
UACC-62 melanoma = system: UACC-62 melanoma
MCF7 breast = system: MCF7 breast
MOLT-4 leukemia = system: MOLT-4 leukemia
MDA-N = system: MDA-N
NCI/ADR-RES ovarian = system: NCI/ADR-RES ovarian
HCC-2998 colon = system: HCC-2998 colon
HS 578T breast = system: HS 578T breast
OVCAR-8 ovarian = system: OVCAR-8 ovarian
A549 NSCLC = system: A549 NSCLC
MDA-MB-231 breast = system: MDA-MB-231 breast
SF-268 CNS = system: SF-268 CNS
M14 melanoma = system: M14 melanoma
HT29 colon = system: HT29 colon
NCI-H226 lung = system: NCI-H226 lung
ACHN renal = system: ACHN renal
K-562 leukemia = system: K-562 leukemia

Question: How did the TGI (TK-10 renal) turn out when O=C1C2CCCCC2C(=O)N1n1c(-c2ccccc2)n[nH]c1=O (stereo not given) was run?
Answer: The TGI was over 100 µM.

Question: What about the TGI (HOP-62 NSCLC) of the same compound?
Answer: The TGI was over 100 µM.

Question: And the TGI (OVCAR-5 ovarian)?
Answer: The TGI was over 100 µM.

Question: And the TGI (786-0 renal)?
Answer: The TGI was over 100 µM.

Question: What about the TGI (UACC-62 melanoma) of the same compound?
Answer: The TGI was over 100 µM.

Question: And the TGI (MCF7 breast)?
Answer: Its TGI is over 100 µM.

Question: And the TGI (MOLT-4 leukemia)?
Answer: The TGI was over 100 µM.

Question: And the TGI (MDA-N)?
Answer: The TGI was over 100 µM.

Question: And the TGI (NCI/ADR-RES ovarian)?
Answer: Its TGI is over 100 µM.

Question: And the TGI (HCC-2998 colon)?
Answer: The TGI was over 100 µM.

Question: And the TGI (HS 578T breast)?
Answer: The TGI was over 100 µM.

Question: What about the TGI (OVCAR-8 ovarian) of the same compound?
Answer: Its TGI is over 100 µM.

Question: And the TGI (A549 NSCLC)?
Answer: Its TGI is over 100 µM.

Question: What about the TGI (MDA-MB-231 breast) of the same compound?
Answer: Its TGI is over 100 µM.

Question: What about the TGI (SF-268 CNS) of the same compound?
Answer: Its TGI is over 100 µM.

Question: What about the TGI (M14 melanoma) of the same compound?
Answer: Its TGI is over 100 µM.

Question: What about the TGI (HT29 colon) of the same compound?
Answer: Its TGI is over 100 µM.

Question: And the TGI (NCI-H226 lung)?
Answer: The TGI was over 100 µM.

Question: And the TGI (ACHN renal)?
Answer: The TGI was over 100 µM.

Question: And the TGI (K-562 leukemia)?
Answer: Its TGI is over 100 µM.

Question: Which TGI (TK-10 renal) does the source give for Cc1ccc(OCC2OC(n3cnc4nc(Nc5ccc(Cl)c(Cl)c5)nc(Cl)c43)CC2Oc2ccc(C)cc2)cc1 (stereo not given) here?
Answer: The TGI was over 100 µM.

Question: And the TGI (HOP-62 NSCLC)?
Answer: The TGI was over 100 µM.

Question: And the TGI (OVCAR-5 ovarian)?
Answer: Its TGI is over 100 µM.

Question: What about the TGI (786-0 renal) of the same compound?
Answer: Its TGI is over 100 µM.

Question: What about the TGI (UACC-62 melanoma) of the same compound?
Answer: The TGI was over 100 µM.

Question: And the TGI (MCF7 breast)?
Answer: The TGI was over 100 µM.

Question: What about the TGI (MOLT-4 leukemia) of the same compound?
Answer: The TGI was over 100 µM.

Question: And the TGI (MDA-N)?
Answer: The TGI was over 100 µM.

Question: And the TGI (NCI/ADR-RES ovarian)?
Answer: The TGI was over 100 µM.

Question: And the TGI (HCC-2998 colon)?
Answer: The TGI was over 100 µM.

Question: And the TGI (HS 578T breast)?
Answer: Its TGI is over 100 µM.

Question: And the TGI (OVCAR-8 ovarian)?
Answer: The TGI was over 100 µM.

Question: And the TGI (A549 NSCLC)?
Answer: The TGI was over 100 µM.

Question: And the TGI (MDA-MB-231 breast)?
Answer: The TGI was over 100 µM.

Question: What about the TGI (SF-268 CNS) of the same compound?
Answer: The TGI was over 100 µM.

Question: And the TGI (M14 melanoma)?
Answer: The TGI was over 100 µM.

Question: What about the TGI (HT29 colon) of the same compound?
Answer: The TGI was over 100 µM.

Question: And the TGI (NCI-H226 lung)?
Answer: The TGI was over 100 µM.

Question: What about the TGI (ACHN renal) of the same compound?
Answer: Its TGI is over 100 µM.

Question: What about the TGI (K-562 leukemia) of the same compound?
Answer: Its TGI is over 100 µM.

Question: Which results are given for CC(O)CN1c2ccccc2Sc2ccccc21 (stereo not given)?
Answer: TGI (TK-10 renal): > 100 µM; TGI (HOP-62 NSCLC): > 100 µM; TGI (OVCAR-5 ovarian): > 100 µM; TGI (786-0 renal): > 100 µM; TGI (UACC-62 melanoma): > 100 µM; TGI (MCF7 breast): > 100 µM; TGI (MOLT-4 leukemia): > 100 µM; TGI (MDA-N): > 100 µM; TGI (NCI/ADR-RES ovarian): > 100 µM; TGI (HCC-2998 colon): > 100 µM; TGI (HS 578T breast): > 100 µM; TGI (OVCAR-8 ovarian): > 100 µM; TGI (A549 NSCLC): > 100 µM; TGI (MDA-MB-231 breast): > 100 µM; TGI (SF-268 CNS): > 100 µM; TGI (M14 melanoma): > 100 µM; TGI (HT29 colon): > 100 µM; TGI (NCI-H226 lung): > 100 µM; TGI (ACHN renal): > 100 µM; TGI (K-562 leukemia): > 100 µM

Question: Which TGI (TK-10 renal) does the source give for CCOC(=O)CC1(Cc2ccc(OCc3ccccc3)cc2)C(=O)OC(c2ccccc2)N1C(=O)c1ccccc1 (stereo not given) here?
Answer: Its TGI is over 100 µM.

Question: What about the TGI (HOP-62 NSCLC) of the same compound?
Answer: The TGI was over 100 µM.

Question: What about the TGI (OVCAR-5 ovarian) of the same compound?
Answer: The TGI was over 100 µM.

Question: What about the TGI (786-0 renal) of the same compound?
Answer: Its TGI is over 100 µM.

Question: What about the TGI (UACC-62 melanoma) of the same compound?
Answer: Its TGI is over 100 µM.

Question: And the TGI (MCF7 breast)?
Answer: The TGI was over 100 µM.

Question: And the TGI (MOLT-4 leukemia)?
Answer: The TGI was over 100 µM.

Question: What about the TGI (MDA-N) of the same compound?
Answer: The TGI was over 100 µM.

Question: And the TGI (NCI/ADR-RES ovarian)?
Answer: The TGI was over 100 µM.

Question: What about the TGI (HCC-2998 colon) of the same compound?
Answer: The TGI was 84.7 µM.

Question: And the TGI (HS 578T breast)?
Answer: Its TGI is over 100 µM.

Question: What about the TGI (OVCAR-8 ovarian) of the same compound?
Answer: The TGI was over 100 µM.

Question: And the TGI (A549 NSCLC)?
Answer: The TGI was over 100 µM.

Question: What about the TGI (MDA-MB-231 breast) of the same compound?
Answer: The TGI was over 100 µM.

Question: What about the TGI (SF-268 CNS) of the same compound?
Answer: Its TGI is over 100 µM.

Question: And the TGI (M14 melanoma)?
Answer: Its TGI is over 100 µM.

Question: What about the TGI (HT29 colon) of the same compound?
Answer: Its TGI is over 100 µM.

Question: What about the TGI (NCI-H226 lung) of the same compound?
Answer: The TGI was over 100 µM.

Question: What about the TGI (ACHN renal) of the same compound?
Answer: The TGI was over 100 µM.

Question: And the TGI (K-562 leukemia)?
Answer: The TGI was over 100 µM.

Question: What does the source list for COC(=O)c1cc(=O)n(-c2ccc3nn(C)nc3c2)cc1C(=O)OC?
Answer: TGI (TK-10 renal): > 100 µM; TGI (HOP-62 NSCLC): > 100 µM; TGI (OVCAR-5 ovarian): > 100 µM; TGI (786-0 renal): > 100 µM; TGI (UACC-62 melanoma): > 100 µM; TGI (MCF7 breast): > 100 µM; TGI (MOLT-4 leukemia): > 100 µM; TGI (MDA-N): > 100 µM; TGI (NCI/ADR-RES ovarian): > 100 µM; TGI (HCC-2998 colon): > 100 µM; TGI (HS 578T breast): > 100 µM; TGI (OVCAR-8 ovarian): > 100 µM; TGI (A549 NSCLC): > 100 µM; TGI (MDA-MB-231 breast): > 100 µM; TGI (SF-268 CNS): > 100 µM; TGI (M14 melanoma): > 100 µM; TGI (HT29 colon): > 100 µM; TGI (NCI-H226 lung): > 100 µM; TGI (ACHN renal): > 100 µM; TGI (K-562 leukemia): > 100 µM
